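Values below derive from 48-hour exposures of cells grown in 96-well plates, with endpoints linearly interpolated between the two concentrations bracketing the appropriate inhibition level. TGI: total growth inhibition.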
Experiments:
Assay in all cases: NCI anticancer screen, dose series, 48 h
[1] = tested on: CAKI-1 renal
[2] = tested on: COLO 205 colon
[3] = tested on: HCC-2998 colon
[4] = tested on: HCT-116 colon
[5] = tested on: HOP-92 NSCLC
[6] = tested on: KM12 colon
[7] = tested on: NCI-H23 lung
[8] = tested on: NCI/ADR-RES ovarian
[9] = tested on: RPMI-8226 leukemia
[10] = tested on: SF-295 CNS
[11] = tested on: TK-10 renal
[12] = tested on: IGROV1 ovarian
[13] = tested on: HL-60(TB) leukemia

CCCCC(=O)Nc1ccc2c(C)cc(-c3ccc(-c4cc(-c5ccc(C)cc5)cc(-c5ccc(-c6cc(C)c7ccc(NC(=O)CCCC)nc7n6)cc5)n4)cc3)nc2n1
TGI [1]: > 100 µM
TGI [2]: > 100 µM
TGI [3]: > 100 µM
TGI [4]: > 100 µM
TGI [5]: > 100 µM
TGI [6]: > 100 µM
TGI [7]: > 100 µM
TGI [8]: > 100 µM
TGI [9]: > 100 µM
TGI [10]: > 100 µM
TGI [11]: > 100 µM

CCCCc1c2c(c(C)c3c1C(=O)OC3)Oc1ccccc1O2
TGI [1]: > 100 µM
TGI [2]: 7.69 µM
TGI [3]: 3.22 µM
TGI [4]: 27.1 µM
TGI [5]: > 100 µM
TGI [12]: > 100 µM
TGI [6]: > 100 µM
TGI [7]: > 100 µM
TGI [8]: 20.5 µM
TGI [9]: > 24.5 µM
TGI [10]: > 51.4 µM
TGI [11]: > 71.3 µM

N#Cc1ccc(C2NN=CC23C(=O)c2ccccc2OC3c2ccccc2)cc1 (centres undefined)
TGI [1]: > 100 µM
TGI [2]: 38 µM
TGI [3]: > 100 µM
TGI [4]: 69 µM
TGI [13]: > 100 µM
TGI [12]: > 100 µM
TGI [6]: > 100 µM
TGI [7]: > 100 µM
TGI [8]: > 100 µM
TGI [9]: 61.4 µM
TGI [10]: > 100 µM
TGI [11]: 96.3 µM

O=C1c2ccccc2C(=O)c2c(NCCCN3CCOCC3)ccc(NCCCN3CCOCC3)c21
TGI [1]: 32 µM
TGI [3]: 27 µM
TGI [4]: 10.4 µM
TGI [13]: > 100 µM
TGI [5]: 15.9 µM
TGI [12]: 29.4 µM
TGI [6]: 20.5 µM
TGI [7]: 17.6 µM
TGI [9]: 42.8 µM
TGI [10]: 11.4 µM
TGI [11]: 39.1 µM

CC1C(c2ccccc2O)c2cc3c(cc2OC1N1CCOCC1)OCO3 (centres undefined)
TGI [1]: 77.5 µM
TGI [2]: 46.6 µM
TGI [3]: 64.3 µM
TGI [4]: 75.9 µM
TGI [13]: 40 µM
TGI [5]: 71.1 µM
TGI [12]: > 100 µM
TGI [6]: 91.6 µM
TGI [7]: 81 µM
TGI [9]: 39.1 µM
TGI [10]: 62 µM
TGI [11]: 97.6 µM

NC(Cc1ccc(B(O)O)cc1)C(=O)NC(CO)CO (centres undefined)
TGI [1]: > 100 µM
TGI [2]: > 100 µM
TGI [3]: > 100 µM
TGI [4]: > 100 µM
TGI [12]: > 100 µM
TGI [6]: > 100 µM
TGI [7]: > 100 µM
TGI [8]: > 100 µM
TGI [9]: > 100 µM
TGI [10]: > 100 µM
TGI [11]: > 100 µM

CCOC(=O)c1cc(C2CCN(Cc3ccccc3)C2=S)c(C(=O)C=[N+]=[N-])[nH]1 (centres undefined)
TGI [1]: > 100 µM
TGI [2]: > 100 µM
TGI [3]: > 100 µM
TGI [4]: > 100 µM
TGI [5]: > 100 µM
TGI [12]: > 100 µM
TGI [6]: > 100 µM
TGI [7]: 53.4 µM
TGI [8]: 79.6 µM
TGI [9]: > 100 µM
TGI [10]: 66.8 µM
TGI [11]: > 100 µM

CCO/C(Cc1ccc(Cl)cc1)=N/NC(N)=S
TGI [1]: > 100 µM
TGI [2]: > 100 µM
TGI [3]: > 100 µM
TGI [4]: > 100 µM
TGI [5]: > 100 µM
TGI [12]: > 100 µM
TGI [6]: > 100 µM
TGI [7]: > 100 µM
TGI [8]: > 100 µM
TGI [10]: > 100 µM
TGI [11]: > 100 µM

O=C1CCCc2ccc3c(c21)CC1(Cc2ccccc2C1)C3
TGI [2]: 52.3 µM
TGI [3]: > 100 µM
TGI [4]: 55.7 µM
TGI [5]: 50.6 µM
TGI [12]: > 100 µM
TGI [6]: > 100 µM
TGI [7]: > 100 µM
TGI [8]: > 100 µM
TGI [9]: 48.1 µM
TGI [10]: > 100 µM
TGI [11]: > 100 µM

O=c1c2ccccc2[nH]c2c(Cl)cc(Cl)c(N3CCCCC3)c12
TGI [1]: 97.1 µM
TGI [2]: > 100 µM
TGI [3]: > 100 µM
TGI [4]: > 100 µM
TGI [13]: 74.7 µM
TGI [12]: 48.2 µM
TGI [6]: 54.9 µM
TGI [7]: 76.5 µM
TGI [8]: 83.4 µM
TGI [9]: > 100 µM
TGI [10]: > 100 µM
TGI [11]: > 100 µM

COc1cc(/C=N/NC2=NCCCCN2)ccc1O
TGI [2]: > 100 µM
TGI [3]: > 100 µM
TGI [4]: > 100 µM
TGI [13]: > 100 µM
TGI [5]: > 100 µM
TGI [12]: > 100 µM
TGI [6]: > 100 µM
TGI [7]: > 100 µM
TGI [8]: > 100 µM
TGI [9]: > 100 µM
TGI [10]: > 100 µM
TGI [11]: > 100 µM

Cc1csc(NNC(=O)Nc2ccccc2)n1
TGI [1]: > 100 µM
TGI [2]: > 100 µM
TGI [3]: > 100 µM
TGI [4]: > 100 µM
TGI [13]: > 100 µM
TGI [12]: > 100 µM
TGI [6]: > 100 µM
TGI [7]: > 100 µM
TGI [8]: > 100 µM
TGI [9]: > 100 µM
TGI [10]: > 100 µM

N/C(=N\S(=O)(=O)c1cc(Cl)c(Oc2ccc([N+](=O)[O-])cc2Cl)c(Cl)c1)Nc1ccc(Cl)cc1
TGI [1]: 33.1 µM
TGI [2]: 30.5 µM
TGI [4]: 34.3 µM
TGI [13]: 39.6 µM
TGI [5]: 32.3 µM
TGI [12]: 31.4 µM
TGI [6]: 36.6 µM
TGI [7]: 32.1 µM
TGI [8]: 35.3 µM
TGI [10]: 39.5 µM
TGI [11]: 35.4 µM

c1ccc([P+](CCCCCC[P+](c2ccccc2)(c2ccccc2)c2ccccc2)(c2ccccc2)c2ccccc2)cc1
TGI [1]: > 100 µM
TGI [2]: 13.8 µM
TGI [3]: > 100 µM
TGI [4]: > 100 µM
TGI [13]: 67 µM
TGI [5]: 66.7 µM
TGI [12]: 30.8 µM
TGI [6]: 63.2 µM
TGI [7]: 69.6 µM
TGI [8]: > 100 µM
TGI [10]: > 100 µM
TGI [11]: > 100 µM

COc1cc2c[n+](C)c3c(c2cc1OC)Cc1cc2c(cc1-3)OCO2
TGI [1]: > 100 µM
TGI [2]: > 100 µM
TGI [4]: > 100 µM
TGI [13]: > 100 µM
TGI [5]: > 100 µM
TGI [12]: > 100 µM
TGI [6]: > 100 µM
TGI [7]: > 100 µM
TGI [8]: > 100 µM
TGI [9]: > 100 µM
TGI [10]: > 100 µM
TGI [11]: > 100 µM

COc1ccc(C(=O)/C=C/c2ccc(OCC(=N)N)cc2)cc1
TGI [2]: 28.6 µM
TGI [3]: 30.4 µM
TGI [4]: 16.7 µM
TGI [5]: 28.5 µM
TGI [12]: 40.8 µM
TGI [6]: 25.8 µM
TGI [7]: 43.3 µM
TGI [8]: 72 µM
TGI [10]: 30 µM
TGI [11]: 38.9 µM

COc1cc(C2c3c(ccc4ccccc34)C(=O)C3CCC(=O)N32)cc(OC)c1O (centres undefined)
TGI [2]: > 25 µM
TGI [4]: > 25 µM
TGI [13]: > 25 µM
TGI [5]: > 25 µM
TGI [12]: > 25 µM
TGI [6]: > 25 µM
TGI [7]: > 25 µM
TGI [8]: > 25 µM
TGI [9]: > 25 µM
TGI [10]: > 25 µM

S=C=NC1CCC(c2cc3ccccc3s2)(N2CCCCC2)CC1 (centres undefined)
TGI [1]: 3.45 µM
TGI [2]: 3.93 µM
TGI [3]: 3.22 µM
TGI [4]: 3.58 µM
TGI [13]: 3.09 µM
TGI [5]: 3.56 µM
TGI [6]: 3.95 µM
TGI [7]: 3.85 µM
TGI [8]: 5.68 µM
TGI [10]: 7.39 µM
TGI [11]: 3.45 µM

From PubChem BioAssay (NCI)
